Molecular target: human MCH receptor (Homo sapiens (Human), UniProt Q99705)
Test: calcium mobilization assay (FLIPR); functional IC50 values of MCH1R antagonists
Format: cell-based
Details: recombinant HEK293 cell line expressing the human MCH receptor, cellular calcium flux after addition of agonist (MCH)
Source text: Influence on the MCH Receptor in vitro; Determination of Functional IC50 Values of MCH1R Antagonists
Cloning of the cDNA for the human MCH receptor, preparation of a recombinant HEK293 cell line which expresses the human MCH receptor, and functional measurements with the recombinant cell line took place in analogy to the description by Audinot et al. (J. Biol. Chem. 2001, 276, 13554-13562). A difference from the reference was, however, the use of the plasmid pEAK8 from EDGE Biosystems (USA) for the construction of the expression vector. The host used for the transfection was a transformed HEK cell line named “PEAK Stable Cells” (likewise from EDGE Biosystems). Functional measurements of the cellular calcium flux after addition of agonist (MCH) in the presence of ligand of the invention took place with the aid of the FLIPR apparatus from Molecular Devices (USA), using protocols of the apparatus manufacturer. The compounds of the invention show a significant inhibition (>30%) of the signal induced by the agonist at a concentration of 100 μM, preferably at 10 μM, particularly preferably at 1 μM, very particularly preferably at 100 nM and very very particularly preferably at 10 nM.

Sequence of human MCH receptor (Q99705 whole entry): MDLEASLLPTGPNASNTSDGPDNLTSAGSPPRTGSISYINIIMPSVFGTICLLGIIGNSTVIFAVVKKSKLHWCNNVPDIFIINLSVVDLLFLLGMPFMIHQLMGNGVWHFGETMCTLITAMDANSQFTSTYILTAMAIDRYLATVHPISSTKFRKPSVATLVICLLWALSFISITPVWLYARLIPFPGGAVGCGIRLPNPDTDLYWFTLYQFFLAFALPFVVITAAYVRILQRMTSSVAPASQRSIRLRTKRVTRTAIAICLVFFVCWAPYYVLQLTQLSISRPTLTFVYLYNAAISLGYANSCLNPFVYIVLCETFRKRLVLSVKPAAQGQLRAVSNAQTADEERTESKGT

Compound | IC50 [µM]
CN(C(=O)c1ccc(OCC2CC2)cc1)[C@@H]1Cc2ccc(CN3CCC(C(C)(C)O)CC3)cc2C1 [Example 1-05] | 0.294
CN(C(=O)c1ccc(OCC2CC2)cc1)[C@@H]1Cc2ccc(CN3CCCCCC3)cc2C1 [Example 1-09] | 0.139
CN(C(=O)c1ccc(OCC2CC2)cc1)[C@@H]1Cc2ccc(CNCC3CCOCC3)cc2C1 [Example 1-15] | 0.123
CN(C(=O)c1ccc(OCC2CC2)cc1)[C@@H]1Cc2ccc(CNCC(C)(C)C)cc2C1 [Example 1-23] | 0.144
CCN(C)Cc1ccc2c(c1)C[C@H](N(C)C(=O)c1ccc(OCC3CC3)cc1)C2 [Example 1-32] | 0.147
CN(C(=O)c1ccc(OCC2CC2)cc1)[C@@H]1Cc2ccc(CNCC3(C)CC3)cc2C1 [Example 1-34] | 0.121
CN(C(=O)c1ccc(OCC2CC2)cc1)[C@@H]1Cc2ccc(CN3CC[C@H](O)C3)cc2C1 [Example 1-38] | 0.115
CC(C)(C)CNCc1ccc2c(c1)C[C@H](NC(=O)c1ccc(OC[C@@H]3CCCO3)cc1)C2 [Example 1-42] | 0.222
CN(C(=O)c1ccc(OC[C@@H]2CCCO2)cc1)[C@@H]1Cc2ccc(CN3CC4CCC3CC4)cc2C1 [Example 1-47] | 0.229
O=C(N[C@@H]1Cc2ccc(CN3CCCCCC3)cc2C1)c1ccc(OC[C@@H]2CCCO2)cn1 [Example 1-50] | 0.766
O=C(N[C@@H]1Cc2ccc(CNCCC3CC3)cc2C1)c1ccc(OCC2CC2)cn1 [Example 1-55] | 0.848
CC1(CNCc2ccc3c(c2)C[C@H](NC(=O)c2ccc(OCC4CC4)cn2)C3)CC1 [Example 1-58] | 1.04
CCCCOc1ccc(C(=O)N(C)[C@@H]2Cc3ccc(CNCC4(C)CCOCC4)cc3C2)nc1 [Example 1-72] | 0.147
CCCCOc1ccc(C(=O)N(C)[C@@H]2Cc3ccc([C@H]4CCCN4)cc3C2)cc1 [Example 2, 4-Butoxy-N-methyl-N-((R)-(R)-5-pyrrolidin-2-ylindan-2-yl)benzamide] | 0.255
CN1CCCC1c1ccc2c(c1)C[C@H](N(C)C(=O)c1ccc(OCC3CC3)cn1)C2 (stereo partly drawn) [Example 3-1, N-Methyl-N-[(R)-5-(1-methylpyrrolidin-2-yl)indan-2-yl]-5-cyclopropylmethoxypyridine-2-carboxamide] | 1.14

More lines, in order of falling IC50, values ahead:

IC50 [µM] | Compound
0.777 | O=C1c2ccc(OC[C@@H]3CCCO3)cc2CCN1[C@@H]1Cc2ccc(CNC3CCCCC3)cc2C1 [Example 1-90]
0.208 | CC1(C)CCN(Cc2ccc3c(c2)C[C@H](NC(=O)c2ccc(OC[C@@H]4CCCO4)cc2)C3)CC1 [Example 1-40]
0.198 | CC[C@H](C)NCc1ccc2c(c1)C[C@H](N(C)C(=O)c1ccc(OCC3CC3)cc1)C2 [Example 1-36]
0.194 | CCCCOc1ccc(C(=O)N(C)[C@@H]2Cc3ccc(CNC[C@@H]4CCCO4)cc3C2)nc1 [Example 1-66]
0.179 | CN(C(=O)c1ccc(OCC2CC2)cn1)[C@@H]1Cc2ccc(CN3CCCCC3)cc2C1 [Example 1-81]
0.173 | CCCCOc1ccc(C(=O)N(C)[C@@H]2Cc3ccc(CN4C[C@@H]5CC[C@H]4C5)cc3C2)nc1 [Example 1-62]
0.144 | CN(C(=O)c1ccc(OC[C@@H]2CCCO2)cc1)[C@@H]1Cc2ccc(CNCC(C)(C)C)cc2C1 [Example 1-46]
0.117 | COCCCNCc1ccc2c(c1)C[C@H](N(C)C(=O)c1ccc(OCC3CC3)cc1)C2 [Example 1-27]
0.111 | CN(C(=O)c1ccc(OCC2CC2)cc1)[C@@H]1Cc2ccc(CN3CCC3)cc2C1 [Example 1-31]
